{
  "source": "ChEMBL document CHEMBL3758137",
  "about": "(Eur J Med Chem, 2016)",
  "key": {"[1]": {"test": "Antiproliferative activity against human EBC1 cells after 72 hrs by SRB assay", "details": "EBC-1, 72 h"}, "[2]": {"test": "Solubility of compound in TRIS buffer by nephelometric analysis in presence of 0.1% BSA", "type": "physicochemical", "details": "TRIS buffer with 0.1% BSA"}, "[3]": {"molecular_target": "T1, Tyrosine-protein kinase receptor TYRO3 (Homo sapiens, UniProt Q06418)", "T1 sequence (Q06418 whole entry)": "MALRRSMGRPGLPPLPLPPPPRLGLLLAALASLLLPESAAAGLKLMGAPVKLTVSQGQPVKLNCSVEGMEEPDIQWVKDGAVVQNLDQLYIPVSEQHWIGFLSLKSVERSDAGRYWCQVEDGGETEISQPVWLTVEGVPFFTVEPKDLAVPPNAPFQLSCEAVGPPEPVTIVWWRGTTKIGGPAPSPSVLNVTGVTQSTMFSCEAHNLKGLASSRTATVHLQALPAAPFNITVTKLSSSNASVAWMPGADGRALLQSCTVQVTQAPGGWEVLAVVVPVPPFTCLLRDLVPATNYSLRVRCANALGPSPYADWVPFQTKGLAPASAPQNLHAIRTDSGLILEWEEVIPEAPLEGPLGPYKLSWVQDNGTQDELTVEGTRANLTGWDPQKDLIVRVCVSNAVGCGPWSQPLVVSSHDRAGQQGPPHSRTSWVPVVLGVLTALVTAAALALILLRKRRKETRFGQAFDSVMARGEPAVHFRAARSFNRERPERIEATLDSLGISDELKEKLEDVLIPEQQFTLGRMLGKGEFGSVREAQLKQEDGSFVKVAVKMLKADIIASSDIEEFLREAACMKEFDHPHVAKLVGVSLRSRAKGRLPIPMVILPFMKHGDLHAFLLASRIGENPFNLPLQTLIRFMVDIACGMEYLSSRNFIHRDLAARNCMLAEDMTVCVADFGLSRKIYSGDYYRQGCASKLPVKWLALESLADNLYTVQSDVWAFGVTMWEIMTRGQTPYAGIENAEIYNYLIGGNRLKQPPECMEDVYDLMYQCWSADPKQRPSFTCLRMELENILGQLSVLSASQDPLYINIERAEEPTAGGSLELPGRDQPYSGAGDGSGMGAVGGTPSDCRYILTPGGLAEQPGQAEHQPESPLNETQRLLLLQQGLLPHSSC", "test": "Inhibition of recombinant human TyrO3 using poly (Glu,Tyr)4:1 as substrate after 60 mins by ELISA"}, "[4]": {"molecular_target": "Platelet-derived growth factor receptor alpha (Homo sapiens, UniProt P16234)", "sequence (P16234 whole entry)": "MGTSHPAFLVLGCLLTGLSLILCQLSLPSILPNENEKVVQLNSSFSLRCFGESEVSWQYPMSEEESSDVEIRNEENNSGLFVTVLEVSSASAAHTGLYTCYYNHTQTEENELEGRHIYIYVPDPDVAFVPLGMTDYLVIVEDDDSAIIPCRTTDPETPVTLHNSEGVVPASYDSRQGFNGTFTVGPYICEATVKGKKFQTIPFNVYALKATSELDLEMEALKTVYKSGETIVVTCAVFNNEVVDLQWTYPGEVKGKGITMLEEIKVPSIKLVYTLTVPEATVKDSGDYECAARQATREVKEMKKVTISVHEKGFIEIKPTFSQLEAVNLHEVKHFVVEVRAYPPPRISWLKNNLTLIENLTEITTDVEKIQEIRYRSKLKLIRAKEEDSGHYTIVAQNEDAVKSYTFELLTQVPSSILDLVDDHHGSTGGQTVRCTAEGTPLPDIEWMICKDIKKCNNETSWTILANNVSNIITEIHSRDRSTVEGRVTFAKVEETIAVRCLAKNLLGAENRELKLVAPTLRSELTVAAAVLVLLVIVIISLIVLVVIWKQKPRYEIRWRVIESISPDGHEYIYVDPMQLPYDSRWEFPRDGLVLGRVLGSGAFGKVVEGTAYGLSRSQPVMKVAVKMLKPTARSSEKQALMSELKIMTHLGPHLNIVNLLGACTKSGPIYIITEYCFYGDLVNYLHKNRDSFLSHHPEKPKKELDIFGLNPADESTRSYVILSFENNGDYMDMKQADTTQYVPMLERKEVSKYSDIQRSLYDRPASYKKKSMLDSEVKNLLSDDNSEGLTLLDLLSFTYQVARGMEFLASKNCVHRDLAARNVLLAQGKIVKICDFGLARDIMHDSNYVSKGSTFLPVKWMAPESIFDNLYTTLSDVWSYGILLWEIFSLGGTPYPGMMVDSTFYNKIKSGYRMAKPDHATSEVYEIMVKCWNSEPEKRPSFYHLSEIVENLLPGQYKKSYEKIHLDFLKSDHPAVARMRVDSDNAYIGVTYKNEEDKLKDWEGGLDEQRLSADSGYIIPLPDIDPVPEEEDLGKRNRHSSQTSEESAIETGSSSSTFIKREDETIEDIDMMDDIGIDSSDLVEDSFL", "test": "Inhibition of recombinant human PDGFR-alpha using poly (Glu,Tyr)4:1 as substrate after 60 mins by ELISA"}, "[5]": {"molecular_target": "Platelet-derived growth factor receptor beta (Homo sapiens, UniProt P09619)", "sequence (P09619 whole entry)": "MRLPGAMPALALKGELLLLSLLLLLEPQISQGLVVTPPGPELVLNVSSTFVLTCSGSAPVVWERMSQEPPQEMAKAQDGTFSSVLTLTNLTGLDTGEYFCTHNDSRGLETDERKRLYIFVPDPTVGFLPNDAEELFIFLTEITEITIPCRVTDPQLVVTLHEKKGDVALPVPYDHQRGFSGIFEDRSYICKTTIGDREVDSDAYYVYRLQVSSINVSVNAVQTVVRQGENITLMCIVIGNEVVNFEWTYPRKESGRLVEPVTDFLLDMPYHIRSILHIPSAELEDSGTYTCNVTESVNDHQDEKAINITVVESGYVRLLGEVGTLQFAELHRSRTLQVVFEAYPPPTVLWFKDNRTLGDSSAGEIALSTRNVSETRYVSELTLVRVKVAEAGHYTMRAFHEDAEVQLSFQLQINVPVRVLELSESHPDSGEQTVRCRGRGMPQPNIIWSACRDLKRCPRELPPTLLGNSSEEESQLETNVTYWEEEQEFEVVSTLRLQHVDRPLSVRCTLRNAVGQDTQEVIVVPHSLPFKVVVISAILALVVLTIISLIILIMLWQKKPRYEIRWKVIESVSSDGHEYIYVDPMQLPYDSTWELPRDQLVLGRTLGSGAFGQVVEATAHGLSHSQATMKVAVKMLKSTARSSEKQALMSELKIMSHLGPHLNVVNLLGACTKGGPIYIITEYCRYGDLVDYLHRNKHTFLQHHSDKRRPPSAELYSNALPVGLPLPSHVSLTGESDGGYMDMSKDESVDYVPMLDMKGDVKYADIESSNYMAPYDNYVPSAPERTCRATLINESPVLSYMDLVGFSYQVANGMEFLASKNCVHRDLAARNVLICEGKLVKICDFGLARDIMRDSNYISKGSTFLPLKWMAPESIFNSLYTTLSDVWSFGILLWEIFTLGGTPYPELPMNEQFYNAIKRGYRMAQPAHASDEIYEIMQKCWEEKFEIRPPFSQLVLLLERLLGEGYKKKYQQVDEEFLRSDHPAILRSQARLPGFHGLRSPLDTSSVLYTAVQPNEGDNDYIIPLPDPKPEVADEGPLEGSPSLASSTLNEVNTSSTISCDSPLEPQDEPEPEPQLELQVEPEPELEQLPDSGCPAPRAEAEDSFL", "test": "Inhibition of recombinant human PDGFR-beta using poly (Glu,Tyr)4:1 as substrate after 60 mins by ELISA"}, "[6]": {"molecular_target": "Vascular endothelial growth factor receptor 2 (Homo sapiens, UniProt P35968)", "test": "Inhibition of recombinant human KDR using poly (Glu,Tyr)4:1 as substrate after 60 mins by ELISA"}, "[7]": {"molecular_target": "T2, Receptor-type tyrosine-protein kinase FLT3 (Homo sapiens, UniProt P36888)", "T2 sequence (P36888 whole entry)": "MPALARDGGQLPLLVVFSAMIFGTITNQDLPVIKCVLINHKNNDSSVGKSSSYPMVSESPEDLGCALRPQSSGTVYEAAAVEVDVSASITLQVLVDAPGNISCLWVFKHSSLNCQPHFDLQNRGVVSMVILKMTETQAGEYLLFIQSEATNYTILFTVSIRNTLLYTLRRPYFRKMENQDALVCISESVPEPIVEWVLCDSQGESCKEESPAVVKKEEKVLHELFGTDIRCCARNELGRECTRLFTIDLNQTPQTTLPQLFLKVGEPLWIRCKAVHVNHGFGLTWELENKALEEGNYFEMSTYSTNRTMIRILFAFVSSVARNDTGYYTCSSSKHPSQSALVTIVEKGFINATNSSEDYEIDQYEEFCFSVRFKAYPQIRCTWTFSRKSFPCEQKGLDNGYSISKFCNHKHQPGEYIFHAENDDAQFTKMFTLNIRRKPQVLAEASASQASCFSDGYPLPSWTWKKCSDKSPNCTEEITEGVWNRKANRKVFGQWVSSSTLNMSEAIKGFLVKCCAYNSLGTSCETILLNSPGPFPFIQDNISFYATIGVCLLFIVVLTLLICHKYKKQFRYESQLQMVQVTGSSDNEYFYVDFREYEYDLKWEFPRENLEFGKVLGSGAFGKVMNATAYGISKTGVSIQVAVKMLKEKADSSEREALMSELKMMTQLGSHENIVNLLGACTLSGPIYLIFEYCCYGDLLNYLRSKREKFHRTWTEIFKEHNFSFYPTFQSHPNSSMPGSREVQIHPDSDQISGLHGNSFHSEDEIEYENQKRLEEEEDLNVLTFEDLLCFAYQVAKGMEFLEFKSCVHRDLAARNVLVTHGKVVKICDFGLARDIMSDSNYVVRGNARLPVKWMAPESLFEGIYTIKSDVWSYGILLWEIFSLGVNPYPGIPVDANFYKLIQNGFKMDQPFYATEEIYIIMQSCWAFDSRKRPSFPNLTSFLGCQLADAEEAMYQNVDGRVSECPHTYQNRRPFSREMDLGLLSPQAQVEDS", "test": "Inhibition of recombinant human Flt-3 using poly (Glu,Tyr)4:1 as substrate after 60 mins by ELISA"}, "[8]": {"molecular_target": "Ephrin type-A receptor 2 (Homo sapiens, UniProt P29317)", "sequence (P29317 whole entry)": "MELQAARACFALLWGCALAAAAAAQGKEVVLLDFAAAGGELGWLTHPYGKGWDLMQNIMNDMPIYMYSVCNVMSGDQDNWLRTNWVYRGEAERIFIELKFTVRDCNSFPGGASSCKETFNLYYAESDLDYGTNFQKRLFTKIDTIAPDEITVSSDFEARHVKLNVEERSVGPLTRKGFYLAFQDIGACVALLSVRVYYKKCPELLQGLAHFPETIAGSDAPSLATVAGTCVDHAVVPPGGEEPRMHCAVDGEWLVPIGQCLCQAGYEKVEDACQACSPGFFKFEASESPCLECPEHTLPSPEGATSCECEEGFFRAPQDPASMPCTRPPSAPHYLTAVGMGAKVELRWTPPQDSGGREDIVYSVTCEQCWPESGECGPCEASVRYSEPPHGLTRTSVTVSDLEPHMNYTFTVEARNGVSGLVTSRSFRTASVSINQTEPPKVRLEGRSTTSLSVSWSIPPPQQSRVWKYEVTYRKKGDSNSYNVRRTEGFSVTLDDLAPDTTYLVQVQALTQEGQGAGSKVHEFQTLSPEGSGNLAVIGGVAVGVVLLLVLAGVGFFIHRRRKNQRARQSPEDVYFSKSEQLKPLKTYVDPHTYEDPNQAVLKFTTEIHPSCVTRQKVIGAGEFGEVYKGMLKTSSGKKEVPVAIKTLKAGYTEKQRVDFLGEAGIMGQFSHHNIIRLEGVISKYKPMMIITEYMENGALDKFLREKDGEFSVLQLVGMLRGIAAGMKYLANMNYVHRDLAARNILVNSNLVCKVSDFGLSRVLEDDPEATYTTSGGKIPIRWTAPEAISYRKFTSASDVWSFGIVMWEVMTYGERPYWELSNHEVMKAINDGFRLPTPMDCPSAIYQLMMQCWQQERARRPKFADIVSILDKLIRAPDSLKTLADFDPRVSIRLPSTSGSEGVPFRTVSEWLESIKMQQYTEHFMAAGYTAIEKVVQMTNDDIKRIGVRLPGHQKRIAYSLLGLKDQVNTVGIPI", "test": "Inhibition of recombinant human EPH-A2 using poly (Glu,Tyr)4:1 as substrate after 60 mins by ELISA"}, "[9]": {"molecular_target": "Tyrosine-protein kinase ABL1 (Homo sapiens, UniProt P00519)", "sequence (P00519 whole entry)": "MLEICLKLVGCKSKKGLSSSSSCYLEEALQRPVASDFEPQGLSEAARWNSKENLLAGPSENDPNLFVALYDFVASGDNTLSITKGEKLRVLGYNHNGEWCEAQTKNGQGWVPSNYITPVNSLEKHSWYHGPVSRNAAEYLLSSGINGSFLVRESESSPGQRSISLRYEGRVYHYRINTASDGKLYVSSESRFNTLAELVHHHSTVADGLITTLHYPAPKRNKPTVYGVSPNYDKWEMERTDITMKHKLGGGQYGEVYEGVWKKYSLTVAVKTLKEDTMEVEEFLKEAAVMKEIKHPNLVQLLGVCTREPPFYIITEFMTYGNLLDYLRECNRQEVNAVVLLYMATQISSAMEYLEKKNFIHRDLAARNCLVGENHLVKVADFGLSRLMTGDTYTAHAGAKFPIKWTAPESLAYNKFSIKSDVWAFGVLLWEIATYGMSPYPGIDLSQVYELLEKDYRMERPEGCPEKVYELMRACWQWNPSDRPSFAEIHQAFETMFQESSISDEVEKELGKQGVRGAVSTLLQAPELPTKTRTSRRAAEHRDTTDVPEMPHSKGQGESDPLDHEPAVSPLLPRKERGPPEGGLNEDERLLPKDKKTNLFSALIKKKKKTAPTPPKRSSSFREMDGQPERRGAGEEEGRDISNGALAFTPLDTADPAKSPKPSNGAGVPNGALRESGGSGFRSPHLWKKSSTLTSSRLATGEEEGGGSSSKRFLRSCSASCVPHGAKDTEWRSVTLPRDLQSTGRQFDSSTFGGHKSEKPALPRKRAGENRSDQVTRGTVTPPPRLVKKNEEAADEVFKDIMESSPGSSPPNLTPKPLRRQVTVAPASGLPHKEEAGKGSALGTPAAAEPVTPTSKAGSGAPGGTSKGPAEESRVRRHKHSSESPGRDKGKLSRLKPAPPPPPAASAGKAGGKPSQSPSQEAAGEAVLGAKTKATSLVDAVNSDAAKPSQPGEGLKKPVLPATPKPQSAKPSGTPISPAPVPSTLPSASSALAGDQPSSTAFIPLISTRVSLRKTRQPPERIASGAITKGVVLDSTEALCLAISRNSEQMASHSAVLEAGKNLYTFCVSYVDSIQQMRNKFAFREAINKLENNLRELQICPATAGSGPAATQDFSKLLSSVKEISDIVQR", "test": "Inhibition of recombinant human ABL using poly (Glu,Tyr)4:1 as substrate after 60 mins by ELISA"}},
  "data": [
    {"compound": "Cn1cc(-c2cnc(Nc3cccc(Cn4nc(-c5cnn(C)c5)ccc4=O)c3)nc2)cn1", "values": [
      {"measurement": "IC50", "setting": "[1]", "result": 31.2, "unit": "nM"},
      {"measurement": "solubility kinetic", "setting": "[2]", "result": 51, "unit": "µM"},
      {"measurement": "IC50", "setting": "[3]", "result": "> 1000", "unit": "nM"},
      {"measurement": "IC50", "setting": "[4]", "result": "> 1000", "unit": "nM"},
      {"measurement": "IC50", "setting": "[5]", "result": "> 1000", "unit": "nM"},
      {"measurement": "IC50", "setting": "[6]", "result": "> 1000", "unit": "nM"},
      {"measurement": "IC50", "setting": "[7]", "result": "> 1000", "unit": "nM"},
      {"measurement": "IC50", "setting": "[8]", "result": "> 1000", "unit": "nM"},
      {"measurement": "IC50", "setting": "[9]", "result": "> 1000", "unit": "nM"}
    ]}
  ]
}
